# Assay results: paper PMC6599048, “Polyhistidine facilitates direct membrane translocation of cell-penetrating peptides into cells” (Scientific Reports, 2019)
# Primed or numbered codes have the meaning given here. Ends that are not written are not given here. FITC′ = fluorescein isothiocyanate label
# Columns and labels:
# HeLa cells = assay: MTT cytotoxicity assay, HeLa; settings: 6 μM HL6, 0.3 μM QDs or complexes at ratio 20, 37 °C 30 min, then 24 h in complete medium, twelve independent experiments
# Protocol: One hundred % DMSO and serum-free medium were used to treat cells for 30 min as positive and negative controls, respectively. HeLa cells were pretreated with 4 °C for 30 min or heparinases I, II, and III for 6 h. Cells were then treated with HL6/QD complexes (prepared at a ratio of 20 at 37 °C for 1 h) in the absence or presence of various endocytic inhibitors at 37 °C for 30 min. After treatment, cells were washed with PBS and then incubated in complete culture medium at 37 °C for 24 h. Eighty μl of serum-free medium and 20 μl of 3-(4,5-dimethylthiazol-2-yl)-2,5-diphenyltetrazolium bromide (MTT, Sigma-Aldrich; 5 mg/ml in PBS) solution were added to each well. After incubation at 37 °C for 30 min, […] formazan crystals converted only by metabolically living cells were dissolved in 300 μl of DMSO. The 24-well plates were then read using a SpectraMax M2 microplate reader with SoftMax Pro 6.3 microplate analysis software (Molecular Devices, Sunnyvale, CA, USA) at 540 nm wavelength.
# A549 cells [1] = assay: MTT cytotoxicity assay, A549; settings: 6 μM HL6, 0.3 μM QDs or complexes at ratio 20, 37 °C 30 min, then 24 h in complete medium, twelve independent experiments
# human A549 cells = assay: Cellular internalization of FITC-CPPs, fluorescent microscopy; assay type: cell-based; settings: 80 μM, serum-free RPMI 1640, 37 °C, 1 h, Hoechst 33342 counterstain
# Protocol: (§1) A549 cells were washed with phosphate buffered saline (PBS) and changed to serum-free RPMI 1640 medium for protein transduction experiments. The presence of 10% serum in the medium as the solvent caused a decrease in the uptake of CPPs or their complexes/conjugates. For cellular internalization, cells were seeded at a density of about 1 × 10^5 per 35-mm petri dish and then treated with serum-free medium (as a control), 80 μM of FITC isomer I (Sigma-Aldrich, St. Louis, MO, USA), FITC-nonCPP, FITC-L6, FITC-HL6, or FITC-HR9 at 37 °C for either 1 h or various time durations. The fluorescent tracker Hoechst 33342 was used to stain the nuclei of cells in blue, according to the manufacturer’s instructions (Thermo Fisher).
# Bright-field and fluorescent images were captured using an AE31 inverted Epi-fluorescence microscope (Motic, Hong Kong, China) equipped with an IS1000 eyepiece (Tucsen, Fujian, China)[17]. Excitation filter modules of green and blue fluorescent protein (GFP, BFP) channels were set at 480/30 and 350/50 nm, respectively. Emission filter modules of GFP and BFP channels were set at 535/40 and 460/50 nm, respectively.
# A549 cells [2] = assay: Time course of cellular internalization of FITC-CPPs, flow cytometry; assay type: cell-based, human; settings: 80 μM, 37 °C
# Protocol: as §1
# Cells were seeded at a density of about 2 × 10^5 per well in a 24-well plate. Following the protein transduction, cells were washed with PBS and harvested by adding 250 μl/well of 2.9 mM ethylenediaminetetraacetic acid (EDTA, pH 6.14)[22]. […] Digital measurements were analyzed using Cell Lab Quanta SC MPL software version 1.0 (Beckman Coulter).
Substance,green fluorescence in cells (cellular internalization) (human A549 cells),time by which green fluorescence was present (A549 cells [2]; serum-free medium),other results
CHHHHHRRWQWRHHHHHC [HL6],,,"cytotoxicity (cell viability, MTT) (HeLa cells): No cytotoxicity was detected; cytotoxicity (cell viability, MTT) (A549 cells [1]): No cytotoxicity was detected"
FITC-HL6: N-terminal fluorescein isothiocyanate (FITC) labeled HL6 ({FITC′}-CHHHHHRRWQWRHHHHHC; cysteine pairing not given here),green fluorescence,≤ 5 min,"uptake relative to the FITC-L6 group (A549 cells [2]; 60 min, serum-free medium, seven independent experiments in triplicates): 46.7 times"
"fluorescein isothiocyanate [FITC, reference compound]",did not display green fluorescence,,
"CHHHHHRRRRRRRRRHHHHHC [FITC-HR9, reference compound]",,≤ 5 min,"fraction of cells showing uptake, comparison between FITC-CPPs (A549 cells [2]; all time points): higher with FITC-HR9-treated cells than FITC-HL6 and FITC-L6 at all time points"
